Experiment [1] relates to ZIKV. Kind of experiment: ZIKV infectious (cytoprotection, XTT) assay. The following applies: Zika virus, Vero, Cell Line Vero (Example 92); read-out: ZIKV EC50. The class given is cell-based, Zika virus. The protocol:
Vero cells were passaged in DMEM medium in T-75 flasks prior to use in the antiviral assay. On the day preceding the assay, the cells were split 1:2 to assure they were in exponential growth phase at the time of infection. The cells were resuspended at […] cells per well in tissue culture medium and added to flat bottom microtiter plates in a volume of […]. The plates were incubated at 37° C./5% CO2 overnight to allow for cell adherence. Separately, Zika virus was titrated in LLCMK2 cells to define the inoculum for use in the antiviral assay. Virus was diluted in DMEM medium such that the amount of virus added to each well in a volume of […] was the amount determined to achieve 85 to 95% cell killing at 5 days post-infection. Following incubation test plates were stained with XTT dye. XTT solution was prepared daily as a stock solution of 1 mg/mL in RPM11640. PMS solution was prepared at 0.15 mg/mL in PBS and stored in the dark at −20° C. XTT/PMS stock was prepared immediately before use by adding […] of PMS per mL of XTT solution. Fifty microliters of XTT/PMS was added to each well of the plate, and the plate was reincubated for 4 hours at 37° C. Plates were sealed with adhesive plate sealers ad shaken gently to mix the soluble formazan product, and the plate was read spectrophotometrically read 450/650 nm with a Molecular Devices Vmax plate reader. The raw data was collected from Softmax Pro and imported into a Microsoft Excel XLfit4 spreadsheet for analysis using four parameter curve fit calculations.
A general note: Formazan colour is commonly taken as a measure of viable cells.

The next experiment deals with DENV2 New Guinea C. Kind of experiment: Anti-Dengue virus cytoprotection assay. The class given is cell-based, Dengue virus type 2. Here is the method:
Cell Preparation—BHK21 cells (Syrian golden hamster kidney cells, ATCC catalog #CCL-I 0), Vero cells (African green monkey kidney cells, ATCC catalog #CCL-81), or Huh-7 cells (human hepatocyte carcinoma) were passaged in DMEM supplemented with 10% FBS, 2 mM L-glutamine, 100 U/mL penicillin, and 100 μg/mL streptomycin in T-75 flasks prior to use in the antiviral assay. On the day preceding the assay, the cells were split 1:2 to assure they were in an exponential growth phase at the time of infection. Total cell and viability quantification was performed using a hemocytometer and Trypan Blue dye exclusion. Cell viability was greater than 95% for the cells to be utilized in the assay. The cells were resuspended at 3×10^3 ([…] for Vero cells and Huh-7 cells) cells per well in tissue culture medium and added to flat bottom microtiter plates in a volume of 100 μL. The plates were incubated at 37° C./5% CO2 overnight to allow for cell adherence.
Virus Preparation—The Dengue virus type 2 New Guinea C strain was obtained from ATCC (catalog #VR-1584) and was grown in LLC-MK2 (Rhesus monkey kidney cells; catalog #CCL-7.1) cells for the production of stock virus pools. An aliquot of virus pretitered in BHK21 cells was removed from the freezer (−80° C.) and allowed to thaw slowly to room temperature in a biological safety cabinet. Virus was resuspended and diluted into assay medium (DMEM supplemented with 2% heat-inactivated FBS, 2 mM L-glutamine, 100 U/mL penicillin, and 100 μg/mL streptomycin) such that the amount of virus added to each well in a volume of 100 μL was the amount determined to yield 85 to 95% cell killing at 6 days post-infection.
Plate Format—Each plate contains cell control wells (cells only), virus control wells (cells plus virus), triplicate drug toxicity wells per compound (cells plus drug only), as well as triplicate experimental wells (drug plus cells plus virus).
Efficacy and Toxicity XTT-Following incubation at 37° C. in a 5% CO2 incubator, the test plates were stained with the tetrazolium dye XTT (2,3-bis(2-methoxy-4-nitro-5-sulfophenyl)-5-[(phenylamino)carbonyl]-2H-tetrazolium hydroxide). XTT-tetrazolium was metabolized by the mitochondrial enzymes of metabolically active cells to a soluble formazan product, allowing rapid quantitative analysis of the inhibition of virus-induced cell killing by antiviral test substances. XTT solution was prepared daily as a stock of 1 mg/mL in RPMI 1640. Phenazine methosulfate (PMS) solution was prepared at 0.15 mg/mL in PBS and stored in the dark at −20° C. XTT/PMS stock was prepared immediately before use by adding 40 μL of PMS per ml of XTT solution. Fifty microliters of XTT/PMS was added to each well of the plate and the plate was reincubated for 4 hours at 37° C. Plates were sealed with adhesive plate sealers and shaken gently or inverted several times to mix the soluble formazan product and the plate was read spectrophotometrically at 450/650 nm with a Molecular Devices Vmax plate reader.
Data Analysis —Raw data was collected from the Softmax Pro 4.6 software and imported into a Microsoft Excel spreadsheet for analysis. The percent reduction in viral cytopathic effect compared to the untreated virus controls was calculated for each compound. The percent cell control value was calculated for each compound comparing the drug treated uninfected cells to the uninfected cells in medium alone.

In a further experiment the test system is RSV. Kind of experiment: Antiviral assay RSV. The class given is cell-based. The settings on record: human respiratory syncytial virus, Huh-7, read-out: RSV EC50. The protocol:
Cell Preparation-HEp2 cells (human epithelial cells, ATCC catalog #CCL-23) were passaged in DMEM supplemented with 10% FBS, 2 mM L-glutamine, 100 U/mL penicillin, 100 μg/mL streptomycin 1 mM sodium pyruvate, and 0.1 mM NEAA, T-75 flasks prior to use in the antiviral assay. On the day preceding the assay, the cells were split 1:2 to assure they were in an exponential growth phase at the time of infection. Total cell and viability quantification was performed using a hemocytometer and Trypan Blue dye exclusion. Cell viability was greater than 95% for the cells to be utilized in the assay. The cells were resuspended at 1×10^4 cells per well in tissue culture medium and added to flat bottom microtiter plates in a volume of 100 μL. The plates were incubated at 37° C./5% CO2 overnight to allow for cell adherence. […] Virus was resuspended and diluted into assay medium (DMEM supplemented with 2% heat-inactivated FBS, 2 mM L-glutamine, 100 U/mL penicillin, 100 μg/mL streptomycin, 1 mM sodium pyruvate, and 0.1 mM NEAA) such that the amount of virus added to each well in a volume of 100 μL was the amount determined to yield 85 to 95% cell killing at 6 days post-infection. Efficacy and Toxicity XTT-Plates were stained and analyzed as previously described for the Dengue cytoprotection assay.

For the next experiment, the system named is HRV. Kind of experiment: Antiviral assay HRV. The class given is cell-based. The settings on record: HeLa, read-out: HRV EC50.
For experiment [2], the system named is ZIKV. Kind of experiment: ZIKV infectious (cytoprotection, XTT) assay. The class given is cell-based. The settings on record: Zika virus, Huh-7, Cell Line Huh-7 (Example 92); read-out: ZIKV EC50.

Read-outs that look alike come from different tables or passages of the source.

`C#CC1(O)C(O)[C@@H](COP(=O)(OCOC(=O)C(C)(C)C)OCOC(=O)C(C)(C)C)O[C@H]1n1ccc(=O)[nH]c1=O` (stereo partly shown) [EIDD-02290]: the EC50 (as a rule, the concentration at which the effect is half-maximal) was found to be 1060 nM in the experiment with ZIKV [1]; 240 nM in the experiment with DENV2 New Guinea C (DENV2, Huh-7, read-out: DENV2 EC50); 7560 nM in the experiment with DENV2 New Guinea C (DENV2, Vero, read-out: DENV2 EC50); 7760 nM with DENV2 New Guinea C (DENV2, read-out: DENV2 EC50); 90000 nM in the experiment on RSV; 50 nM in the experiment with HRV. Moreover, the EC50 in the experiment with ZIKV [2] was determined as 310 nM.
